According to patent publication US10548994B1, “Control of chronic neuropathic pain and allodynia” (STC.UNM, priority 2013, dated 2020):
“Also recorded” adds a separate entry of the source.

What was measured:
[1] = test system: rats with sciatic nerve chronic constriction injury (CCI); test: Sciatic nerve chronic constriction injury (CCI) allodynia, von Frey test; format: in vivo, rat; conditions: for reversal of CCI-induced mechanical allodynia: 10 days after CCI
From the text: Glial (astrocytes, microglia, satellite & Schwann) cells are recognized as contributing to the development and maintenance of neuropathic pain [86]. Glia are well-known to serve a number of housekeeping functions for healthy neuronal communication. […] Glia have receptors for and are activated by invading pathogens, neuropeptides and neurotransmitters. Once activated, glia can contribute to persistent pathological pain by responding to and releasing factors that act on both neurons and surrounding glia. Classic immune signals include the pro-inflammatory cytokines, interleukin-1 (IL-1β) and tumor necrosis factor-alpha (TNF-α), and chemokines such as CCL2 [139, 142]. Chronic constriction injury (CCI) is a well-characterized animal model that involves both inflammation and trauma around one sciatic nerve. Loose sciatic nerve ligation of 4 sutures produces allodynia in hind paws of rodents. Allodynia in rodents is often measured by hind paw responses to low threshold mechanical stimuli (von Frey test). Clinically, allodynia is well-documented as a common problem for neuropathic pain patients, and the von Frey test is a highly validated assessment tool for allodynia. Several gene therapy vector approaches for neuropathic pain control are being pursued for directed delivery to the dorsal spinal cord & DRG (the pain compartments) & to specific cell types within those compartments, such as glial cells in the DRG (satellite & Schwann cells) or astrocytes and microglia in the dorsal horn of the spinal cord, with one recent clinical trial underway.
We sought to identify the best vector system, either of the viral-based adeno-associated virus (AAV) or the non-viral DNA-based vector (plasmid DNA; pDNA), to achieve therapeutic pain control when delivered to the spinal subarachnoid space (IT). […] While successful, the viral vectors were short-lived in their effects when one considers clinical neuropathic pain control. […] While continued progress toward designing improved viral vector systems may be worthy of future exploration, the optimal vector identified for long-duration pain control during the current grant period was determined to be free pDNA encoding the IL-10 gene (FIG. 2). Behavioral pain assessment is conducted as previously described. Briefly, rats are placed in a quite, dimly lit room and allowed to habituate to the testing environment for 4 consecutive days, 1 hr/day. Baseline (BL) responses are assessed with a series of graded calibrated filaments (0.4 g-15.0 g) applied to the plantar surface of the hindpaws for 6 sec, which elicits a reliable paw withdrawal response. The pDNA-based vector used in data described here and in ‘Preliminary Data’ contains inverted terminal repeat (ITRs) palindromic nucleotide sequences that are residual components from the original AAV vector and provide additional promoter activity, albeit, somewhat weak.. Therefore ITRs would only serve to augment the transcription driven by the expression cassette. The transcriptional cassette contains the cytomegalovirus enhancer/chicken b-actin promoter (CB-actin promoter), an intronic region, the rat IL-10 gene with a spontaneous point mutation (F129S) and the SV40 polyadenylation signal region.
The animal models used in the experiments of this example extend to the well characterized & widely used model of peripheral neuropathy—sciatic nerve chronic constriction injury which combines both direct trauma plus inflammation to the sciatic nerve. When the peripheral nerves become unhealthy, neuropathic pain often ensues. This model combines both inflammation from loosely tied chromic gut ligatures that leads to a localized inflammation followed by slight constriction. In this model, spinal cord glia are activated, PICs are produced and blocking the actions of glia & PICs prevents and reverses neuropathic pain.
This stimulus elicits a paw withdrawal response. Under normal conditions, rats respond to about 10 g of pressure. […]

[2] = test system: RAW 264.7 macrophage cells; test: LPS-induced NO production in RAW 264.7 macrophage cells; format: cell-based, mouse; conditions: NorBIRT 500 ng/ml pre-treatment 1, 2, 4 h; LPS 500 ng/ml 24 h
Method: The ability of NorBIRT to inhibit LPS-induced NO production in RAW 264.7macrophage cells was tested. Cells were pre-treated with NorBIRT (500 ng/ml) for 1, 2, and 4 h then exposed to LPS (500 ng/ml) for 24 h.

leukocytes = conditions: prior work; cited from earlier work
CCL2 = test: LPS-stimulated CCL2 production in RAW 264.7 cells; format: cell-based, mouse; conditions: NorBIRT 500 ng/ml 1 h; LPS 500 ng/ml 24 h; supernatants and cell lysates
Method: RAW 264.7 cells were also pretreated with NorBIRT (500 ng/ml) for 1 h before being incubated with LPS (500 ng/ml) for 24 h. The culture supernatant was analyzed for CCL2 production in both, supernatants and celllysates.

IL-1β = IL-1β (ELISA) in supernatants and cell lysates of LPS-stimulated RAW 264.7 cells; format: cell-based, mouse; conditions: NorBIRT 500 ng/ml pretreatment, LPS 500 ng/ml
Method: Additionally, RAW 264.7 cells were pretreated with 500 ng/ml of NorBIRT and were stimulated with LPS (500 ng/ml). The levels of IL-1β were measured by ELISA, (A) supernatants and (B) celllysates. […] FIG. 22 illustrates that NorBIRT inhibits LPS-stimulated expression of IL-1β in RAW 264.7 cells.
(§1) Given the intriguing profile of NorBIRT's actions on reversing allodynia, we examined whether NorBIRT additionally altered proinflammatory cytokine levels. […] Intracellular IL-1b requires enzymatic cleavage to produce the mature released form. […] Thus NorBIRT is blocking the release of mature IL-1b. […] So, NorBIRT may additionally have anti-inflammatory properties.

RAW 264.7 cells [3] = test: Mouse macrophage cell migration in response to CCL2; format: cell-based; conditions: recombinant mouse CCL2 (2D-100 ng/ml)
Method: Mouse macrophages cell migration in response to CCL2 was assessed with recombinant mouse CCL2 (2D-100 ng/ml) in RAW 264.7 cells. Latrunculin was used as a positive control to inhibit cell migration.

RAW 264.7 cells [4] = test: WST-1 cytotoxicity/viability assay; format: cell-based, mouse; conditions: 50, 100, SOO, and 1000 ng/ml, 24 h
Method: RAW 264.7 cells were treated with NorBIRT for the indicated concentrations (50, 100, SOO, and 1000 ng/ml) for 24 h. Cytotoxicity was analyzed using an WST-1 assay. The WST-1 conversion assay was based on the mitochondrial function of intact cells.

[5] = test system: 111In-leukocytes in lumbosacral spinal canal of CCI rats; test: SPECT/CT imaging of 111In-labeled leukocyte accumulation in lumbosacral spinal canal; format: in vivo, rat; conditions: NorBIRT injected vs saline
From the text: Initially, we determined that peripheral leukocytes accumulate in spinal regions that are necessary for pain signaling. We used a small animal SPECT/CT imaging system (single-photon emission computerized tomography) which was very similar to PET imaging, but which had better resolution. […] Blocking spinal leukocyte accumulation may be a novel therapeutic target promising for future clinical applications.
We next investigated whether peripheral immune cells in addition to spinal glia could participate in ongoing pain changes. First, it was determined whether leukocytes could extravasate into the lumbosacral region during ongoing neuropathy. Peritoneal leukocytes from same-strain donor rats were collected and labeled with a gamma-emitting radio-isotope […] and injected i.v. into either CCI or sham treated rats. Biodistributions were examined using a small animal SPECT/.
We quantified radioactivity—in uCis—in very discrete spinal regions of interest related to incoming sciatic pain information. We determined discrete differences in the levels of uCi activity within specific Lumbar vertebra and from the underlying L4-L6 spinal canal, even the associated intervertebral disc regions. We analyzed the L4-L6 spinal canal

LFA-1 = test: LPS-stimulated LFA-1 protein expression (ELISA, cell lysates) in RAW 264.7 cells; format: cell-based, mouse; conditions: NorBIRT 500 ng/ml 2 and 4 h, LPS 500 ng/ml 24 h
Method: Further, RAW 264.7 cells were pretreated with NorBIRT (500 ng/ml) for 2 and 4 h before being incubated with LPS (500 ng/ml). After 24 h of incubation, LFA-1 was measured in celllysates by ELISA.

IL-10 = IL-10 protein (ELISA) in LPS-stimulated RAW 264.7 cells; format: cell-based, mouse; conditions: co-incubation with NorBIRT and LPS 500 ng/ml
Method: Protein levels of Il-10 were evaluated using ELISA.
as §1

TNF-α = TNF-α protein (ELISA) in LPS stimulated RAW 264.7 cells; format: cell-based, mouse; conditions: NorBIRT 500 ng/ml 1 h, LPS 500 ng/ml 4 and 24 h
Method: In this experiment, cells were incubated with NorBIRT (500 ng/ml; 1 h) and after treatment with LPS (500 ng/ml; 4 and 24 h) the protein levels of TNF-α was evaluated by ELISA.

[6] = test system: innate immune cells (macrophage, dendritic cells); conditions: IT IL-10 protein 4 hr prior to IT pDNA-IL10; cited from earlier work
[7] = test system: rats with sciatic nerve chronic constriction injury (CCI); conditions: IT IL-10 protein 4 hr prior to IT pDNA-IL10; cited from earlier work
[8] = i.t. 10-fold higher dose of NorBIRT (Example 10)

## IL-1 receptor antagonist: blocks spinal cord actions of IL1; drug with short half-life
[1]; intrathecal IL-1 receptor antagonist
  time of return of allodynia: ≤ 24 h
[1]; intrathecal, after CCI
  effect on allodynia: completely abolishes

## C[C@@]1(Cc2ccc(Br)cc2)C(=O)N(c2cc(Cl)cc(Cl)c2)C(=O)N1CCCCCN [NorBIRT]
[2]
  LPS-induced NO production: inhibits
leukocytes
  antiproliferative and anti-migratory properties of leukocytes: exert antiproliferative and anti-migratory properties
CCL2
  LPS-stimulated CCL2 production: does not inhibit
IL-1β
  IL-1β release / LPS-stimulated expression (supernatants): reduced; also recorded: attenuated; also recorded: inhibits
  intracellular IL-1β (cell lysates): substantially increased
RAW 264.7 cells [3]
  macrophage cell migration in response to CCL2: inhibits
RAW 264.7 cells [4]
  viability of RAW 264.7 cells: does not affect
[1]; 500 ng i.v. NorBIRT vs saline, 48 and 72 hrs later
  change in allodynia: significant change; also recorded: reverses
[1]; after i.t. NorBIRT (Example 11)
  allodynia fully returned: ≤ 10 days
[1]; higher dose i.t. NorBIRT on day 45
  reversal of 45-day enduring allodynia: substantially reversed
[1]; i.t. 5 ng NorBIRT vs saline (Example 10)
  reversal of allodynia: very modestly reversed
[1]; [8]
  return of allodynia: ≤ 9 days
  reversal of allodynia: substantial reversal
[1]; i.t. NorBIRT vs i.t. vehicle (Example 11)
  reversal of 10-day CCI-induced bilateral mechanical allodynia: reversed
[1]; i.t. NorBIRT, compared to sham controls
  time of peak effect after injection: four
[1]; i.t. higher dose 100 ng vs vehicle (Example 11)
  effect on allodynia: dramatic reversal
[1]; i.t. low dose 5 ng vs vehicle (Example 11)
  effect on allodynia: lacking effects
[1]; i.v. 5000 ng
  effect on allodynia: attenuated allodynia bilaterally
[1]; i.v. 100 000 ng
  effect on allodynia: attenuated allodynia bilaterally
[1]; i.v. low dose, 5 days after injection, vs saline
  dose-dependent reversal from allodynia: did not produce
[1]; i.v. low dose, second experiment
  reversal of CCI-induced mechanical allodynia: did not reverse
[1]; i.v. low dose, throughout 8 days after injection, vs Sham
  dose-dependent reversal from allodynia: does not produce
[1]; i.v., relatively high doses, first experiment
  reversal of CCI-induced mechanical allodynia: reverses
[5]
  leukocyte accumulation (uCi signal) in lumbosacral spinal canal: no signal
LFA-1
  LPS-stimulated LFA-1 protein expression: inhibits
IL-10
  IL-10 protein levels / release: increases; also recorded: dose-dependently increased
TNF-α
  expression (protein levels) of TNF-α: attenuates

## CN1C(=O)N(c2cc(Cl)cc(Cl)c2)C(=O)[C@@]1(C)Cc1ccc(Br)cc1 [BIRT-377, reference compound]
leukocytes
  antiproliferative and anti-migratory properties of leukocytes: exert antiproliferative and anti-migratory properties

B1: IL-10 protein: IT IL-10 protein (without transgene) (protein, UniProt P22301 19-178, looked up)
Interleukin-10: SPGQGTQSENSCTHFPGNLPNMLRDLRDAFSRVKTFFQMKDQLDNLLLKESLLEDFKGYLGCQALSEMIQFYLEEVMPQAENQDPDIKAHVNSLGENLKTLRLRLRRCHRFLPCENKSKAVEQVKNAFNKLQEKGIYKAMSEFDIFINYIEAYMTMKIRN
[6]
  cellular enrichment in surrounding CSF after IT pDNA-IL10: prevented
[7]
  long duration pain relief after IT pDNA-IL-10: prevented
